≈ marks a conversion by molar mass, not a printed value.
Columns and labels:
[1] = test system: platelet aggregation (ADP); experiment: Anti-platelet aggregation effect, ADP-induced; type: cell-based, Hartley male guinea-pigs; conditions: Cavia porcellus; ADP 5 μM; guinea-pig platelet rich plasma, 37° C., 0.5% DMSO
Procedure: (§1) Blood was collected from the abdominal artery of Hartley male guinea-pigs (weight: about 300 g) into a syringe containing 1/10 volume 3.8% sodium citrate. The blood thus obtained was subjected to a centrifugation at 160×g for 10 minutes at room temperature to obtain platelet rich plasma (PRP). Furthermore, the residue was subjected to a centrifugation at 1500×g for 15 minutes to obtain platelet poor plasma (PPP). The measurement was carried out by diluting PRP with PPP to 300,000/mm^3. The measurement range of transmittance was adjusted to 0% in the case of PRP and to 100% in the case of PPP. Thereafter, a test compound dissolved in 100% dimethylsulfoxide (DMSO) was added to PRP (the final concentration of DMSO: 0.5%). After incubation at 37° C., 1000 rpm for 2 minutes, an aggregating agent was added to measure an aggregation curve. The anti-platelet aggregation effect of the test compound was expressed by a concentration (IC50 :μM) at which the aggregation of control was 50% inhibited. The aggregating agents used were ADP (the final concentration: 5 μM), collagen (the final concentration: 2 μg/ml) and U46619 (the final concentration: 0.5 μM). The measurement of platelet aggregation was carried out using NBS HEMA Tracer 601.

Botrytis cinerea [2] = experiment: Minimum growth inhibition concentration, agar plate dilution method; type: cell-based
Description: (§2) The measurement of the minimum growth inhibition concentration (MIC) was made following the agar plate dilution method using an agar medium containing the compound A.

Sclerotinia cinerea = experiment: as above; type: cell-based
Description: as §2

Sclerotinia sclerotiorum [3] = experiment: as above; type: cell-based
Description: as §2

Aspergillus nigar = experiment: as above; type: cell-based
Description: as §2

Rhynchosporium secalis = experiment: as above; type: cell-based
Description: as §2

[4] = test system: platelet aggregation (U46619); experiment: Anti-platelet aggregation effect, U46619-induced; type: cell-based, Hartley male guinea-pigs; conditions: Cavia porcellus; U46619 0.5 μM; guinea-pig platelet rich plasma, 37° C., 0.5% DMSO
Procedure: as §1

[5] = test system: platelet aggregation (collagen); experiment: Anti-platelet aggregation effect, collagen-induced; type: cell-based, Hartley male guinea-pigs; conditions: Cavia porcellus; collagen 2 μg/ml; guinea-pig platelet rich plasma, 37° C., 0.5% DMSO
Procedure: as §1

Botrytis cinerea [6] = experiment: Test for controlling gray mold on cucumber (curative test); type: in vivo; conditions: (1-length treated/untreated)×100
Procedure: Test for Controling Gral Mold (Botrytis cinerea) on Cucumber (Curative Test)
The first leaf was plucked off from 1.5 leaf-sage cucumber (variety: Sgamihanjiro) which had been grown in a 7 cm-diameter pot, and a mycelia disk of Botrytis cinerea was inoculated in the same manner as in the Experiment 1. Then, the cucumber leaf was allowed to stand for 2 days at 20° C. in a moist chamber, and when the disease spots reached approximately […] in diameter, a drug solution produced by deluting an emulsion containing the present compound with water to the desired concentration was sprayed at 10 ml per leaf using a spray gun, and after drying in air the leaf was allowed to stand for 3 days at 20° C. in a moist chamber.
The lengths of the newly developed diseases spots were measured, and the preventive value was determined using the following equation.
Preventive value=(1-length of diseased spots of drug-treated group/length of diseased spots of untreated group)×100

cucumber [7] = experiment: Toxicity in gray mold prevention test on cucumber; type: in vivo, cucumber (variety: Sagamihanjiro)
Procedure: (§3) Onto 1.5 leaf-stage cucumber (variety: Sagamihanjiro) which had been grown in a 7 cm-diameter pot was sprayed, using a spray gun, a drug solution produced by diluting an emulsifiable concentrate containing the present compound with water to the predetermined concentration, at 10 ml per pot.
(§4) On the following day, the first leaf on which was sprayed the drug solution was plucked off, and onto the surface of the leaf was inoculated a mycelia disk which had been prepared from the tip of a cell cluster of Botrytis cinerea cultured at 20° C. for 2 days in a PSA (potato sucrose agar) medium using a 4 mm-diameter cork borer. Then, the cucumber leaf was allowed to stand for 5 days at 20° C. in a moist chamber, the diameter of the diseased spots which formed were measured, and the degree of control was determined according to the following equation. Here, iprodion (trade name: Lobral) was used as a control preparation.

Solubility in solvents = type: physicochemical
Botrytis cinerea [8] = experiment: Test for controlling gray mold on cucumber (prevention test); type: in vivo; conditions: (1-diameter treated/untreated)×100
Procedure: Test for Controlling Gray Mold (Botrytis cinerea) on Cucumber (Prevention Test)
as §3, §4
Preventive value=(1-diameter of disease spots of drug-treated group/diameter of disease spots of untreated group)×100

cucumber [9] = experiment: Toxicity in Sclerotinia rot prevention test on cucumber; type: in vivo, cucumber (variety: Sagamihanjiro)
Procedure: as §3
(§5) On the following day, the first leaf on which was sprayed the drug solution was plucked off, and onto the surface of the leaf was inoculated a mycelia disk which had been prepared from the tip of a cell cluster of Sclerotinia sclerotiorum cultured at 20° C. for 1 day in a PSA medium by using a 4 mm-diameter cork borer. Then, the cucumber leaf was allowed to stand for 3 days at 20° C. in a moist chamber, the diameter of the disease spots which formed were measured measured, and the preventive value was determined according to the following equation.

Sclerotinia sclerotiorum [10] = experiment: Test for controlling cucumber Sclerotinia rot (prevention test); type: in vivo; conditions: Sclerotinia rot on cucumber, (1-diameter treated/untreated)×100
Procedure: Test for Controling Cucumber Sclerotinia Rot (Sclerotinia sclerotiorum) (Prevention Test)
as §3, §5
Preventive value=(1-diameter of diseased spots of drug-treated group/diameter of disease spots of untreated group)×100

CCCCC1CC2=C(C(=O)OC2=O)C(C(O)CCCC)CC2=C1C(=O)OC2=O (stereo not drawn) [Compound A]
IC50 [1]: 187 µM
MIC (Botrytis cinerea [2]): 0.78 µg/mL (≈ 2 µM)
MIC (Sclerotinia cinerea): 3.13 µg/mL (≈ 8.02 µM)
MIC (Sclerotinia sclerotiorum [3]): 1.56 µg/mL (≈ 4 µM)
MIC (Aspergillus nigar): 3.13 µg/mL (≈ 8.02 µM)
MIC (Rhynchosporium secalis): 1.56 µg/mL (≈ 4 µM)
IC50 [4]: 484 µM
IC50 [5]: 42 µM
Preventive value (Botrytis cinerea [6]; 50 ppm spraying): 73
Preventive value (Botrytis cinerea [6]; 100 ppm spraying): 79
Toxicity (cucumber [7]; 25 ppm spraying): none
Toxicity (cucumber [7]; 50 ppm spraying): none
Toxicity (cucumber [7]; 100 ppm spraying): none
Solubility in solvents (Solubility in solvents; chloroform, ethyl acetate, methanol): readily soluble
Solubility in solvents (Solubility in solvents; water): sparingly soluble
Preventive value (Botrytis cinerea [8]; 25 ppm spraying): 100
Preventive value (Botrytis cinerea [8]; 50 ppm spraying): 100
Preventive value (Botrytis cinerea [8]; 100 ppm spraying): 100

CC(C)NC(=O)N1CC(=O)N(c2cc(Cl)cc(Cl)c2)C1=O [Iprodion, iprodion, reference compound]
Toxicity (cucumber [9]; 50 ppm spraying): none
Toxicity (cucumber [9]; 100 ppm spraying): none
Preventive value (Botrytis cinerea [6]; 50 ppm spraying): 70
Preventive value (Botrytis cinerea [6]; 100 ppm spraying): 75
Preventive value (Sclerotinia sclerotiorum [10]; 50 ppm spraying): 100
Preventive value (Sclerotinia sclerotiorum [10]; 100 ppm spraying): 100
Toxicity (cucumber [7]; 25 ppm spraying): none
Toxicity (cucumber [7]; 50 ppm spraying): none
Toxicity (cucumber [7]; 100 ppm spraying): none
Preventive value (Botrytis cinerea [8]; 25 ppm spraying): 25
Preventive value (Botrytis cinerea [8]; 50 ppm spraying): 95
Preventive value (Botrytis cinerea [8]; 100 ppm spraying): 100

Reference: US5346919A, “Anti-bacterial substances and microorganisms which produce them” (Nissan Chemical Industries, Ltd., priority 1992, dated 1994)
